In brackets after ≈: the same amount, converted by molar mass. Where a SMILES comes first, the peptide text is derived from it. Bridges are numbered along the chain shown (N, C = ends). [ ]: non-standard residue; d: D form. The star is where a group is joined. Tridecanoyl = CCCCCCCCCCCCC(=O)*; Undecanoyl = CCCCCCCCCCC(=O)*; dOrn = NCCC[C@@H](N)C(=O)O
Tests used:
[1] = test system: Enterobacter cloacae SBJ-9395; type: cell-based; details: SBJ-9395
[2] = test system: Salmonella CVM 1290 (cmy2); type: cell-based
[3] = test system: Salmonella CVM 40118 (oxa-1); type: cell-based
[4] = test system: Salmonella CVM 40119 (tem 12); type: cell-based
[5] = test system: Serratia marcescens SAMN 04276914; type: cell-based; details: SAMN 04276914
[6] = test system: Serratia marcescens SAMN 04276915; type: cell-based; details: SAMN 04276915
[7] = test system: Serratia marcescens SAMN04022954; type: cell-based; details: SAMN04022954
[8] = test system: Serratia marcescens SBJ-8283; type: cell-based; details: SBJ-8283
[9] = test system: Serratia marcescens SBJ-9047; type: cell-based; details: SBJ-9047
S. aureus 10 = test: microbe, parasite or virus in culture; type: cell-based, Staphylococcus aureus; details: 10
Excerpt: (§1) The same MIC assay as in Example 6 was used to determine the antimicrobial susceptibility of Compound A, L-form (FIG. 15), and several variants. One variant was Compound A, D-form, with D-Lysine at position 7. Compound B is a variant in the fatty acid chain, with a fatty acid chain composition of C15H29O, and having D-Lys at position 7. Compound C is a variant in the fatty acid chain with a fatty acid chain composition of C11H21O, and having D-Lys at position 7. Variant D is a sequence variant with Phe at position 6 of the cyclic peptide, and having D-Lys at position 7. All variants were chemically synthesized.

S. aureus 12 = test: microbe, parasite or virus in culture; type: cell-based, Staphylococcus aureus; details: 12
Excerpt: as §1

S. aureus 14 = test: microbe, parasite or virus in culture; type: cell-based, Staphylococcus aureus; details: 14
Excerpt: as §1

S. aureus 19 = test: microbe, parasite or virus in culture; type: cell-based, Staphylococcus aureus; details: 19
Excerpt: as §1

S. aureus 2 = test: microbe, parasite or virus in culture; type: cell-based, Staphylococcus aureus; details: 2
Excerpt: as §1

S. aureus 4 = test: microbe, parasite or virus in culture; type: cell-based, Staphylococcus aureus; details: 4
Excerpt: as §1

S. aureus 6 = test: microbe, parasite or virus in culture; type: cell-based, Staphylococcus aureus; details: 6
Excerpt: as §1

S. aureus 8 = test: microbe, parasite or virus in culture; type: cell-based, Staphylococcus aureus; details: 8
Excerpt: as §1

E. faecium ATCC 2320 = test: microbe, parasite or virus in culture; type: cell-based; details: ATCC 2320
E. faecium ATCC 700221 = test: microbe, parasite or virus in culture; type: cell-based; details: ATCC 700221
E. faecium BAA-2318 = test: microbe, parasite or virus in culture; type: cell-based; details: BAA-2318
E. faecalis ATCC 51575 = test: microbe, parasite or virus in culture; type: cell-based, Enterococcus faecalis; details: ATCC 51575
E. faecalis BAA-2365 = test: microbe, parasite or virus in culture; type: cell-based, Enterococcus faecalis; details: BAA-2365
[10] = test system: K. pneumonia CVM 15105 (shv5); type: cell-based, Klebsiella pneumoniae
Excerpt: as §1

[11] = test system: K. pneumonia CVM 40142 (ges-1); type: cell-based, Klebsiella pneumoniae
Excerpt: as §1

[12] = test system: K. pneumoniae CVM 15102 (shv5); type: cell-based, Klebsiella pneumoniae
Excerpt: as §1

[13] = test system: K. pneumoniae CVM 9246 (shv18, oxa2); type: cell-based, Klebsiella pneumoniae
Excerpt: as §1

E. coli CVM 15100 (mir1) = type: cell-based, Escherichia coli
Excerpt: as §1

[14] = test system: E. coli CVM 35778 (ctx-m-2); type: cell-based, Escherichia coli
Excerpt: as §1

[15] = test system: E. coli CVM 40126 (oxa-1); type: cell-based, Escherichia coli
Excerpt: as §1

[16] = test system: E. coli CVM 40131 (ctx-m-2); type: cell-based, Escherichia coli
Excerpt: as §1

[17] = test system: E. coli CVM 40134 (ctx-m-15); type: cell-based, Escherichia coli
Excerpt: as §1

[18] = test system: E. coli CVM 40136 (tem 52b); type: cell-based, Escherichia coli
Excerpt: as §1

[19] = test system: E. coli CVM 40141 (imp-1); type: cell-based, Escherichia coli
Excerpt: as §1

[20] = test system: E. cloacae CVM 15101 (P99); type: cell-based, Enterobacter cloacae
Excerpt: as §1

[21] = test system: S. Bareilly CVM40145 (ACC-1); type: cell-based, Salmonella
Excerpt: as §1

[22] = test system: S. Heidelberg CVM 40140 (cmy-2); type: cell-based, Salmonella
Excerpt: as §1

[23] = test system: S. Keur massar CVM 40135 (shv12); type: cell-based, Salmonella
Excerpt: as §1

[24] = test system: S. Newport CVM 40115 (cmy 2); type: cell-based, Salmonella
Excerpt: as §1

[25] = test system: S. Typhimurium CVM 40117 (ctx-m-5); type: cell-based, Salmonella
Excerpt: as §1

[26] = test system: P. aeruginosa CVM 40144 (PER-1); type: cell-based, Pseudomonas aeruginosa
Excerpt: as §1

CCCCCCCCCCC(=O)N[C@H](CCCN)C(=O)N[C@H](C(=O)N[C@@H]1C(=O)N[C@H](CCCN)C(=O)N[C@@H](CO)C(=O)N[C@@H](Cc2ccc(O)cc2)C(=O)N[C@H](CCCCN)C(=O)N[C@H](CO)C(=O)N[C@@H]([C@@H](C)CC)C(=O)N2CCC[C@H]2C(=O)N[C@@H]([C@@H](C)CC)C(=O)N2CCC[C@H]2C(=O)N[C@@H]([C@@H](C)CC)C(=O)O[C@@H]1C)C(C)C [Compound C] (Undecanoyl-[dOrn]VT[dOrn]SY[dK][dS]IPIPI; ester 3-C; N-terminus assumed)
MIC [1]: 8 µg/mL (≈ 5.01 µM) | MIC [2]: 16 µg/mL (≈ 10 µM) | MIC [3]: 4 µg/mL (≈ 2.51 µM) | MIC [4]: 8 µg/mL (≈ 5.01 µM) | MIC [5]: 64 µg/mL (≈ 40.1 µM) | MIC [6]: ≥128 µg/mL | MIC [7]: 64 µg/mL (≈ 40.1 µM) | MIC [8]: 32 µg/mL (≈ 20 µM) | MIC [9]: 64 µg/mL (≈ 40.1 µM) | MIC (S. aureus 10): 8 µg/mL (≈ 5.01 µM) | MIC (S. aureus 12): 8 µg/mL (≈ 5.01 µM) | MIC (S. aureus 14): 8 µg/mL (≈ 5.01 µM) | MIC (S. aureus 19): 8 µg/mL (≈ 5.01 µM) | MIC (S. aureus 2): 8 µg/mL (≈ 5.01 µM) | MIC (S. aureus 4): 8 µg/mL (≈ 5.01 µM) | MIC (S. aureus 6): 8 µg/mL (≈ 5.01 µM) | MIC (S. aureus 8): 8 µg/mL (≈ 5.01 µM) | MIC (E. faecium ATCC 2320): 8 µg/mL (≈ 5.01 µM) | MIC (E. faecium ATCC 700221): 8 µg/mL (≈ 5.01 µM) | MIC (E. faecium BAA-2318): 8 µg/mL (≈ 5.01 µM) | MIC (E. faecalis ATCC 51575): 32 µg/mL (≈ 20 µM) | MIC (E. faecalis BAA-2365): 32 µg/mL (≈ 20 µM) | MIC [10]: 8 µg/mL (≈ 5.01 µM) | MIC [11]: 8 µg/mL (≈ 5.01 µM) | MIC [12]: 8 µg/mL (≈ 5.01 µM) | MIC [13]: 8 µg/mL (≈ 5.01 µM) | MIC (E. coli CVM 15100 (mir1)): 8 µg/mL (≈ 5.01 µM) | MIC [14]: 16 µg/mL (≈ 10 µM) | MIC [15]: 8 µg/mL (≈ 5.01 µM) | MIC [16]: 8 µg/mL (≈ 5.01 µM) | MIC [17]: 8 µg/mL (≈ 5.01 µM) | MIC [18]: 8 µg/mL (≈ 5.01 µM) | MIC [19]: 32 µg/mL (≈ 20 µM) | MIC [20]: 8 µg/mL (≈ 5.01 µM) | MIC [21]: 16 µg/mL (≈ 10 µM) | MIC [22]: 16 µg/mL (≈ 10 µM) | MIC [23]: 16 µg/mL (≈ 10 µM) | MIC [24]: 16 µg/mL (≈ 10 µM) | MIC [25]: 16 µg/mL (≈ 10 µM) | MIC [26]: 16 µg/mL (≈ 10 µM)

CCCCCCCCCCCCC(=O)N[C@H](CCCN)C(=O)N[C@H](C(=O)N[C@@H]1C(=O)N[C@H](CCCN)C(=O)N[C@@H](CO)C(=O)N[C@@H](Cc2ccccc2)C(=O)N[C@H](CCCCN)C(=O)N[C@H](CO)C(=O)N[C@@H]([C@@H](C)CC)C(=O)N2CCC[C@H]2C(=O)N[C@@H]([C@@H](C)CC)C(=O)N2CCC[C@H]2C(=O)N[C@@H]([C@@H](C)CC)C(=O)O[C@@H]1C)C(C)C [Variant D] (Tridecanoyl-[dOrn]VT[dOrn]SF[dK][dS]IPIPI; ester 3-C; N-terminus assumed)
MIC [1]: 32 µg/mL (≈ 19.9 µM) | MIC [2]: 8 µg/mL (≈ 4.97 µM) | MIC [3]: 8 µg/mL (≈ 4.97 µM) | MIC [4]: 8 µg/mL (≈ 4.97 µM) | MIC [5]: 64 µg/mL (≈ 39.8 µM) | MIC [6]: ≥128 µg/mL | MIC [7]: ≥128 µg/mL | MIC [8]: 32 µg/mL (≈ 19.9 µM) | MIC [9]: ≥128 µg/mL | MIC (S. aureus 10): 8 µg/mL (≈ 4.97 µM) | MIC (S. aureus 12): 8 µg/mL (≈ 4.97 µM) | MIC (S. aureus 14): 8 µg/mL (≈ 4.97 µM) | MIC (S. aureus 19): 8 µg/mL (≈ 4.97 µM) | MIC (S. aureus 2): 8 µg/mL (≈ 4.97 µM) | MIC (S. aureus 4): 8 µg/mL (≈ 4.97 µM) | MIC (S. aureus 6): 8 µg/mL (≈ 4.97 µM) | MIC (S. aureus 8): 8 µg/mL (≈ 4.97 µM) | MIC (E. faecium ATCC 2320): 8 µg/mL (≈ 4.97 µM) | MIC (E. faecium ATCC 700221): 8 µg/mL (≈ 4.97 µM) | MIC (E. faecium BAA-2318): 8 µg/mL (≈ 4.97 µM) | MIC (E. faecalis ATCC 51575): 8 µg/mL (≈ 4.97 µM) | MIC (E. faecalis BAA-2365): 8 µg/mL (≈ 4.97 µM) | MIC [10]: 8 µg/mL (≈ 4.97 µM) | MIC [11]: 8 µg/mL (≈ 4.97 µM) | MIC [12]: 8 µg/mL (≈ 4.97 µM) | MIC [13]: 8 µg/mL (≈ 4.97 µM) | MIC (E. coli CVM 15100 (mir1)): 8 µg/mL (≈ 4.97 µM) | MIC [14]: 16 µg/mL (≈ 9.95 µM) | MIC [15]: 8 µg/mL (≈ 4.97 µM) | MIC [16]: 8 µg/mL (≈ 4.97 µM) | MIC [17]: 8 µg/mL (≈ 4.97 µM) | MIC [18]: 16 µg/mL (≈ 9.95 µM) | MIC [19]: 16 µg/mL (≈ 9.95 µM) | MIC [20]: 8 µg/mL (≈ 4.97 µM) | MIC [21]: 32 µg/mL (≈ 19.9 µM) | MIC [22]: 16 µg/mL (≈ 9.95 µM) | MIC [23]: 16 µg/mL (≈ 9.95 µM) | MIC [24]: 8 µg/mL (≈ 4.97 µM) | MIC [25]: 8 µg/mL (≈ 4.97 µM) | MIC [26]: 16 µg/mL (≈ 9.95 µM)

Source: patent publication US10906940B2, “Antimicrobial peptides, pharmaceutical compositions, and methods of use thereof” (priority 2014, dated 2021)
